# Assay results: paper PMC6093661, “Vitamin E hydroquinone is an endogenous regulator of ferroptosis via redox control of 15-lipoxygenase” (PLoS ONE, 2018)
# Several values for one entry are separate records, joined by “and”; a condition that tells them apart may be missing. Identical values can stand only once. Like-named read-outs stand apart in the source and are kept apart here.
# How the values were obtained:
# Q7 cells [1] = assay: RSL3-induced loss of Q7 cell viability; assay type: cell-based, mouse
# Procedure: Ferroptotic cell death was induced in Q7 cells using RSL3, a GPX4 inhibitor previously described. All four stereoisomers of RSL3 were synthesized and purified using published methods. […] To assess compound rescue activity and potency from ferroptotic cell death, Q7 cells were seeded in clear bottom, black wall tissue culture-treated polystyrene plates (Corning) using either an electronic multichannel pipette or a Multidrop™ Combi Reagent Dispenser (ThermoFisher Scientific). Cells were incubated for 5 hours at 33°C in an atmosphere with 95% humidity and 5% CO2 to allow attachment of the cells to the culture plate. Test compounds were administered to the desired final concentrations using a D300e Digital Dispenser (Tecan), followed within 15 minutes by RSL3 (2 μM final concentration). DMSO diluent was back-filled to a final concentration of 0.3% (v/v). Cell plates were incubated at 33°C (5% CO2, 95% humidity) for 18 hours. After a 15-minute equilibration to room temperature, cell number/viability was assessed using the CellTiter-Glo® 2.0 Cell Titer Glo 2.0 reagent (a luminescence-based assay to quantitate ATP; Promega) which was added using the Multidrop™ Combi Reagent Dispenser (Thermo Fisher Scientific). After 15 minutes of incubation at room temperature, the luminescence (100 ms integration time) per well was determined using the BioTek Synergy plate reader. Data was imported into and analyzed using Dotmatics Studies software suite. EC50 values for each compound were estimated using standard four-parameter curve fitting algorithms. pEC50 is defined as negative-log10 (EC50) in M units.
# [2] = target: T1, Rabbit 15-lipoxygenase (rLOX15) (Oryctolagus cuniculus, UniProt P12530); assay: Lipoxygenase enzyme inhibition assay; assay type: biochemical; conditions: for activity at 100 µM: read-out: 15-Lipoxygenase Enzyme Assay % activity at 100 μM; for IC50: 50 μM arachidonic acid substrate
# T1 construct: purchased Enzo Life Sciences, Inc. BML-PL015
# T1 sequence (P12530 1-663): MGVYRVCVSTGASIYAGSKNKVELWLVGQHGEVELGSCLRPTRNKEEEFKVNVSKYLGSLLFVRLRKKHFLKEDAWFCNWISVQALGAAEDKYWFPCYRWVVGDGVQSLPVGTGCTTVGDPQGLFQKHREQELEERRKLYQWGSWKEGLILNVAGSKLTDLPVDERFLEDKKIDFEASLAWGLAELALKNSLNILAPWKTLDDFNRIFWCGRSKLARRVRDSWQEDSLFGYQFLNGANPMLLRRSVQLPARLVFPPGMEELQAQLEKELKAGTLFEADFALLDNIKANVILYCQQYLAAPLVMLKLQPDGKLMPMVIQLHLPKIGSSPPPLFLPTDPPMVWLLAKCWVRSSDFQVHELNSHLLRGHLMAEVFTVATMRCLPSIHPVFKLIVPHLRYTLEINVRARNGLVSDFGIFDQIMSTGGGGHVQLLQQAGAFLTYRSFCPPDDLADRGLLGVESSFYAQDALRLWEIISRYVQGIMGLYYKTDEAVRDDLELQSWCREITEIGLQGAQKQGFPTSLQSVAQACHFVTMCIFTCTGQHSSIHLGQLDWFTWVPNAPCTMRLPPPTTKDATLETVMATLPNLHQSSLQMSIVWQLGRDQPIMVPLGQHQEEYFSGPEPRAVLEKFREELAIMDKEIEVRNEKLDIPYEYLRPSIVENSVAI
# Procedure: Rabbit 15-lipoxygenase (rLOX15, part number BML-PL015, lot number 3-P9009a) was obtained from Enzo Life Sciences, Inc. Sodium cholate (part number C6445, lot number 094K0209) was obtained from Sigma-Aldrich.
# Stock solutions of test compounds were prepared in DMSO and then diluted to final assay concentrations in cholate mix such that final cholate and DMSO concentrations were maintained at 0.2%.
# [3] = tested on: Mouse striatal Q7 cells (STHdhQ7/Q7); assay: RSL3 ferroptosis cell rescue (cellular survival assay, CellTiter-Glo)
# Q7 cells [4] = assay: Cellular lipid oxidation assay (BODIPY 581/591 C11, RSL3-treated Q7 cells); assay type: cell-based, mouse; conditions: RSL3 2 μM, 6-point titration, time-lapse microscopy
# Procedure: Ferroptosis was induced by RSL3 (2 μM final concentration) in Q7 cells as described above. The protective activity of co-treated compounds was assessed also as described above. The rate of cellular lipid oxidation after GPX4 inhibition was assessed by monitoring the time-dependent changes in green fluorescence of cells pre-labeled with BODIPY™ 581/591 C11 dye (5 μM, 30-minute labeling period; Thermo Fisher/Invitrogen) using the IncuCyte S3 live-cell imaging apparatus (Sartorius) using a 10x objective. Cells (three images per field; at least three replicate wells per condition) were imaged once hourly for up to 18 hours after compound and RSL3 addition. Quantification of cell images was performed using the IncuCyte Zoom software using the Basic Analyzer tool which utilized an algorithm that calculated the total green-positive area per well where “green-positive” was defined as 1.45 times the local background-subtracted fluorescent signal. After a 2-3-hour lag period post-RSL3 treatment, the cellular green fluorescence signal began increasing. The rate of change in total green-positive area per well from 3–9 hours post-compound treatment was calculated, then expressed relative to that observed in the RSL3-only control treatment group, which was defined as 100%.
# [5] = ORAC (oxygen radical absorbance capacity) assay; conditions: average of 25 and 12.5 μM compound; mean, SEM, n = 6
# Procedure: ORAC assay kits were purchased from Cell Biolabs. Assays were performed per the manufacturer’s instructions for lipophilic samples with minor modifications. DMSO stock solutions of compounds were diluted in an anaerobic glovebox to final concentrations of 25 and 12.5 μM in triplicate. A standard curve of Trolox® between 0–100 μM in triplicate per concentration was also generated on each assay plate. Diluted compounds and standards were removed from the glovebox and reactions initiated by addition of aerobic fluorescein reagent and radical initiator. Fluorescein fluorescence was monitored at excitation wavelength of 480 nm and emission wavelength of 520 nm every minute for one hour. AUC analysis was performed as described in the kit protocol. The “Trolox equivalents” at each concentration of test compound were calculated and the average Trolox equivalents at the two compound concentrations are presented. The errors were determined by propagating errors from the SEMs of the triplicate determinations to the averages across the two triplicate determinations.
# [6] = Radical-trapping antioxidant (RTA) activity assay in DOPC liposomes
# [7] = tested on: 15-HETE release from Q7 cells; assay: Targeted arachidonate metabolite release cellular assay (RSL3-treated Q7 cells); assay type: cell-based, mouse; conditions: RSL3 co-treatment, compound 10 μM
# Procedure: Ferroptosis was initiated by RSL3 (2 μM final concentration) in Q7 cells as described above. The protective activity of co-treated compounds was assessed also as described above. Four to five hours after RSL3 treatment, the conditioned medium was collected into 1.2-mL cluster tubes containing ice-cold acetonitrile at a ratio of 1:2. Tubes were snap frozen on dry ice and stored at -80°C.
# Prior to analysis, samples were thawed on wet ice and then vortexed briefly. Samples were centrifuged at 4000 rpm for 15min at 4°C. Supernatant (40 μL) was transferred to a 96-well injection plate and 10 μL of both internal standard and HPLC grade water were added. A Shimadzu Nexera MP system coupled to a Sciex 6500 Qtrap and configured for micro-flow was used to analyze all samples. Samples were maintained at 4°C in the Nexera MP autosampler for the duration of the analytical run.
# A Thermo Gold-C8 column (1.9 μm, 1.0 x 100 mm) operated at 45°C was used for chromatographic separation. The total run time of the liquid chromatography method was 10 min. Mobile phase A consisted of water with 0.1% formic acid. Mobile phase B was composed of 0.1% formic acid in 3:1 acetonitrile:isopropyl alcohol. Gradient elution was employed, with mobile phase B being ramped from 5% at 0min, to 50% at 2 min, and finally 98% at 7.5 min. Electrospray conditions for the μLC-ESI-MS/MS method were optimized for a flow rate of 125 μL/min and were as follows: Ion spray voltage was set to -4500 V, temperature of 250°C, curtain gas of 20, CAD gas of 10, and ion source gas 1 and 2 of 20 and 40 psi, respectively. Analyzer parameters were optimized for each compound using a combination of manual tuning and compound optimization. The following MRM transitions were used to quantify concentrations of 15-HETE, 12-HETE and Arachidonic Acid (AA). 15-HETE: 319→219; 12-HETE: 319→179; AA: 303→259.
# [8] = Mus musculus, 18 h, read-out: RSL3 Ferroptosis Cell Assay Average EC50, Q7 cells, RSL3 2 μM, 18 h co-treatment, CellTiter-Glo 2.0
Structure (SMILES),"activity at 100 µM ([2]; rabbit 15-LO, compound 100 μM) [%]",IC50 ([2]; rabbit 15-LO) [nM],"EC50 [3, 8] [nM]",also measured
"COC(=O)c1ccc([C@H]2c3[nH]c4ccccc4c3C[C@H](C(=O)OC)N2C(=O)CCl)cc1 [(1S,3R)-RSL3]",,,,"reduction of cell number/viability (Q7 cells [1]; RSL3 2 μM, 18 h, typical): > 80%; onset of cell death after RSL3 addition (Q7 cells [1]; RSL3 ≥1 μM): ~ 5 h; loss of cell viability (Q7 cells [1]; RSL3 ≥1 μM, 18 h after treatment): 80–95%; IC50 (Q7 cells [1]; most potent single stereoisomer of RSL3, read-out: IC50 for inhibition of Q7 cell viability): ~200 nM"
"CC(C)=CCC/C(C)=C/CC/C(C)=C/CC[C@@](C)(O)CCC1=C(C)C(=O)C(C)=C(C)C1=O [αT3Q, α-tocotrienol quinone]",,,43,
"Cc1c(C)c2c(c(C)c1O)CC[C@@](C)(CCC[C@H](C)CCC[C@H](C)CCCC(C)C)O2 [αT, α-tocopherol, reference compound]",78,> 100000,5160,"effect on RSL3-induced lipid oxidation (BODIPY 581/591 C11 oxidation) (Q7 cells [4]): prevented; inhibition of rabbit 15-LO enzyme activity ([2]; arachidonic acid as substrate, up to 100 μM): did not; ORAC Antioxidant Activity Assay Trolox Equiv. [5]: 0.073 Trolox Equiv. and 0.073 ± 0.008 Trolox Equiv.; Radical Trapping Assay AUC (Rel. Control) ([6]; 50 μM compound, 2 mol% in DOPC liposomes, BODIPY 581/591 C11 quenching, liposome-only control = 1): 5.123; RTA AUC fold greater than αTQ and αTHQ ([6]; DOPC liposomes, AUC relative to liposome only control): 2.5–4 fold; reduction of RSL3-induced 15-HETE production [7]: 19%; EC50 ([3]; read-out: RSL3 Ferroptosis Cell Assay Average EC50, Q7 cells, RSL3 2 μM, 18 h co-treatment, CellTiter-Glo 2.0): 5200 ± 2800 nM"
"CC(C)=CCC/C(C)=C/CC/C(C)=C/CC[C@]1(C)CCc2cc(O)c(C)c(C)c2O1 [γT3, γ-tocotrienol]",,,,activity at 100 µM [2]: 33%
"CC(C)=CCC/C(C)=C/CC/C(C)=C/CC[C@@](C)(O)CCC1=CC(=O)C(C)=C(C)C1=O [γT3Q, γ-tocotrienol quinone]",,,52,
"Cc1c(O)cc(CC[C@](C)(O)CCC[C@H](C)CCC[C@H](C)CCCC(C)C)c(O)c1C [γTHQ, γ-tocopherol hydroquinone]",18,2190,64,
"CC1=C(C)C(=O)C(CC[C@](C)(O)CCC[C@H](C)CCC[C@H](C)CCCC(C)C)=CC1=O [γTQ, γ-tocopherol quinone]",,,101,
"CC(C)=CCC/C(C)=C/CC/C(C)=C/CC[C@@](C)(O)CCC1=CC(=O)C=C(C)C1=O [δT3Q, δ-tocotrienol quinone]",,,163,
CC1=CC(=O)C=C(CC[C@](C)(O)CCC[C@H](C)CCC[C@H](C)CCCC(C)C)C1=O [δTQ],,,236,

# The next lines start with results.
"activity at 100 µM ([2]; rabbit 15-LO, compound 100 μM) [%]",IC50 ([2]; rabbit 15-LO) [nM],Structure (SMILES),"EC50 [3, 8] [nM]",also measured
24,,Cc1c(C)c2c(c(C)c1O)CC[C@@](C)(CCC(=O)O)O2 [α-CEHC],8510,
64,> 100000,"CC(C)=CCC/C(C)=C/CC/C(C)=C/CC[C@]1(C)CCc2c(C)c(O)c(C)c(C)c2O1 [αT3, α-tocotrienol]",167,"fold more potent in inhibiting ferroptosis, tocotrienol vs corresponding tocopherol ([3]; Q7 cells, RSL3, EC50 ratio): ~ 30 fold"
9,1990,"CC(C)=CCC/C(C)=C/CC/C(C)=C/CC[C@@](C)(O)CCc1c(C)c(O)c(C)c(C)c1O [αT3HQ, α-tocotrienol hydroquinone]",43,
7,1120,"CC(C)=CCC/C(C)=C/CC/C(C)=C/CC[C@@](C)(O)CCc1cc(O)c(C)c(C)c1O [γT3HQ, γ-tocotrienol hydroquinone]",36,
34,,"Cc1c(O)cc2c(c1C)O[C@](C)(CCC[C@H](C)CCC[C@H](C)CCCC(C)C)CC2 [γT, γ-tocopherol]",3220,
46,,"CC(C)=CCC/C(C)=C/CC/C(C)=C/CC[C@]1(C)CCc2cc(O)cc(C)c2O1 [δT3, δ-tocotrienol]",517,
14,1370,"CC(C)=CCC/C(C)=C/CC/C(C)=C/CC[C@@](C)(O)CCc1cc(O)cc(C)c1O [δT3HQ, δ-tocotrienol hydroquinone]",146,
45,,"Cc1cc(O)cc2c1O[C@](C)(CCC[C@H](C)CCC[C@H](C)CCCC(C)C)CC2 [δT, δ-tocopherol]",5670,
17,2090,"Cc1cc(O)cc(CC[C@](C)(O)CCC[C@H](C)CCC[C@H](C)CCCC(C)C)c1O [δTHQ, δ-tocopherol hydroquinone]",84,
